In US11985977B2, “Use of composition as a growth promotant for plants” (UENME Global Pty LTD, priority 2018, dated 2024):

Columns and labels:
[1] = system: Phellinus (fungal pathogen); assay: Second mango trial, fungal pathogen (Example 6); type: in vivo; settings: spraying as in Example 5; Phellinus fruiting bodies under the bark at start
[2] = system: hemp, macadamias, grapes, citrus (mandarins) and capsicum; assay: Various other crop trials, spraying; type: in vivo; settings: 0.03% w/v spray
Phytophthora = assay: Laboratory study on Phytophthora in avocado soil (Example 4); type: cell-based
Procedure: Laboratory study on Phytophthora (30 Sep. 2017 onwards to August 2018)
Crop avocado soil with Phytophthora.
Treatment TMT supplied in a 15% aqueous solution diluted at 1:500 (10 ml/5 L)

Pithium = assay: Similar laboratory study on Pithium from avocado and Eucalyptus; type: cell-based; settings: similar TMT aqueous solutions; pathogens found on avocado and Eucalyptus
[3] = system: mango trees (cv Kensington Pride); assay: Second mango trial, fruit and tree health (Example 6); type: in vivo, Mangifera indica
[4] = system: other soil microbes including other pathogens, fungi, bacteria as well as other soil or water borne biota; assay: Toxicity to other soil microbes and biota; settings: TMT diluted with water
[5] = system: Native pine trees (Auracaria spp.); assay: Native pine trees spray; type: in vivo; settings: sprayed 28 Jun. 2019
Source text: Native pine trees (Auracaria spp.) of differing varieties, also on the same property as in Example 8, were also sprayed on the 28 Jun.

Macadamia tree = Macadamia tree foliar spray, early flowering; type: in vivo
Source text: On the same property as in Example 8, a Macadamia tree was also foliar sprayed on 28 Jun.

Rhodes grass = Rhodes grass pasture dieback trial (Example 2); type: in vivo; settings: 0.03% w/v applied 27 Jun. 2017; sample taken 8 Aug., kept in 10 ml rainwater, observed by 28 Aug. 2017; no change on untreated control
Procedure: On a property near Gin Gin, Queensland a pasture area of Rhodes grass was suffering from “pasture dieback”.
On 27 Jun. 2017 TMT supplied in a 15% aqueous solution diluted in rainwater at 1 in 500 (10 ml/5 L), namely in a 0.03% w/v aqueous solution was applied to a portion of that pasture area hereinafter referred to as the “treated grass”.
On 8 Aug. 2017 grass samples were taken from the treated grass (as a test sample) and from the surrounding untreated grass (as a control sample), and each of these grass samples were placed in separate open containers containing 10 ml of rainwater.

[6] = system: blue grass, couch, Rhodes and turf grasses; assay: Grass trials (die back); type: in vivo
Procedure: Trials were performed on grazing land, a football field, a house front lawn with controls and on golf course couch greens. In all trials on soil with spray application (50 L/50 m^2) relative to controls with water only or TMT+humate solution applied in zeolite or in biochar+/− TMT and humate, 1 kg/10 m^2 with 40 L of solution/T of absorbent.

[7] = Growth stimulation by TMT mixed with liquid humate solution and powdered zeolite; type: in vivo; settings: TMT mixed with a liquid humate solution containing fine powdered zeolite (<40 u)
[8] = system: mango (Mangifera indica) trees (cv Kensington Pride); assay: Mango early flowering and fruiting, foliar spray (Example 8); type: in vivo; settings: 0.03% w/v
Procedure: These mango trees are in rocky poor soil, that is not irrigated.
On 28 Jun. 2019, TMT supplied in a 15% aqueous solution diluted in rainwater at 1 in 500 (10 ml/5 L), namely in 0.03% w/v aqueous solution was applied by foliar spraying.

Phellinus spp. = assay: Contact kill of soil borne fungal pathogens; type: cell-based; settings: TMT diluted with water
Source text: (§1) TMT diluted with water kills the soil borne fungal pathogens, Phytothphora cinnamomi, Pithium spp., and Phellinus spp. on contact.

Pithium spp. = assay: Contact kill of soil borne fungal pathogens; type: cell-based; settings: TMT diluted with water
Source text: as §1

Phytothphora cinnamomi = assay: Contact kill of soil borne fungal pathogens; type: cell-based; settings: TMT diluted with water
Source text: as §1

[9] = system: blue gum, spotted gum, blood wood, lemon scented gum, Moreton Bay ash and Corymbia costata; assay: Additional Eucalypt trials, bark spray; type: in vivo, Eucalypts; settings: bark sprayed; drought conditions, Phytophthora in the soil
Procedure: Additional trials were also carried out on Eucalypts other than that described in Example 3.
Under current drought conditions and the presence of Phytophthora in the soil, all of the additional trees we trialled looked close to death. The bark of all the following trees were sprayed viz. blue gum, spotted gum, blood wood, lemon scented gum, Moreton Bay ash and Corymbia costata.

mango (Mangifera indica) = assay: Mango orchard foliar and stem spray, growth and fruit (Example 5); type: in vivo
Procedure: TMT supplied in a 15% aqueous solution diluted in rainwater at 1 in 500 (10 ml/5 L), namely in 0.03% w/v aqueous solution was used. These three trees were foliar and stem sprayed (2 litre/tree each time) with the solution, once, twice or three times some two weeks apart.

Fusarium oxysporum = assay: Banana plantation foliar spray trial (Example 7); type: in vivo; settings: 0.03% w/v foliar spray, seven affected banana plants (cv Lady Finger); no change in water-sprayed control
Procedure: On a banana (Musa) plantation in Queensland, banana plants (cv Lady Finger) were identified to be affected with Fusarium oxysporum (an ascomycete fungus). Vascular colourisation was seen where the fungus had colonised. A trial using foliar sprays was used. TMT supplied in a 15% aqueous solution diluted in rainwater at 1 in 500 (10 ml/5 L), namely in 0.03% w/v aqueous solution was used for the foliar spraying of seven affected banana plants.

[10] = system: fungal pathogens Phellinus and Phytophthora; assay: Mango orchard foliar and stem spray, fungal pathogens (Example 5); type: in vivo; settings: 0.03% w/v, foliar and stem spray 2 litre/tree, once, twice or three times two weeks apart; three mango trees
Procedure: TMT supplied in a 15% aqueous solution diluted in rainwater at 1 in 500 (10 ml/5 L), namely in 0.03% w/v aqueous solution was used. These three trees were foliar and stem sprayed (2 litre/tree each time) with the solution, once, twice or three times some two weeks apart. The fungal pathogen was killed. The growth response was extraordinary, but in order of the number of sprays. Leaves in both number and size followed suit as did flower spikes and fruit set. Fruit harvested was 10% greater in mass for each additional spray.

[11] = system: native bloodwood (Eucalyptus) trees; assay: Bloodwood trees, bark and soil drench (Example 3); type: in vivo; settings: 0.03% w/v, three applications drenching bark and surrounding soil; trees appeared to be dying
Procedure: On 10 Apr. 2017 TMT supplied in a 15% aqueous solution diluted in rainwater at 1 in 500 (10 ml/5 L), namely in 0.03% w/v aqueous solution was first applied by drenching the bark and surrounding soil for each of the three.
Second and third similar applications of a 0.03% w/v TMT aqueous solution were made to the three trees on 3 June and 27 June respectively.

[12] = system: avocado (Persea americana); assay: Avocado orchard soil spray trial (Example 1); type: in vivo
Procedure: In an avocado (Persea americana) orchard in Queensland, an area of the orchard was selected with poor tree health.
TMT supplied in a 15% aqueous solution was diluted in collected rainwater at 1 in 400, namely in a 0.0375% w/v aqueous solution, was applied with a fire-fighting pump and sprayed to the soil only beneath two trees. This spraying mimicked a tree sprinkler application and was applied as twenty litres per tree.

Phellinus = assay: Similar laboratory study on Phellinus from avocado and Eucalyptus; type: cell-based; settings: similar TMT aqueous solutions; pathogens found on avocado and Eucalyptus
[13] = system: insects, annelids, crustaceans, molluscs, arachnids, birds and animals; assay: Observed effect on other small organisms, birds and animals; type: in vivo; settings: TMT diluted with water as in the embodiments and examples
Source text: The LD-50 for the rat is 2× the body mass of the rat, so it would drown before dying by ingestion.

[14] = system: Araucaria, Cassia and Bauhinia, Grevillea; assay: Tree trials, spraying; type: in vivo; settings: 0.03% w/v spray; after a few weeks of spraying
rat = settings: ingestion; cited from earlier work
[15] = aqueous solution and foliar and stem spraying as in Example 5
[16] = thirty-six days, without watering or fertilizer since spraying

SMILES: Sc1nc(S)nc(S)n1 [TMT, 1,3,5-Triazinane-2,4,6-Trithione]
- effect on fungal pathogen [1]: killed
- growth of crop plants [2]: improvement of growth
- development of spores that break out of sporangias (Phytophthora; 15% aqueous solution diluted at 1:500): do not develop
- effect on Phytophthora (Phytophthora; 15% aqueous solution diluted at 1:500 (10 ml/5 L), avocado soil with Phytophthora): kills and stops lifecycle of Phytophthora
- effect on Pithium in samples (Pithium): appeared to have been killed
- brix (sugar content measurement) higher than the control trees [3, 15]: approximately 10%
- fruit sweetness [3, 15]: noticeably sweeter
- disease and insect predators versus surrounding trees ([3]; spraying as in Example 5): much less disease and fewer insect predators
- leaves of treated trees versus surrounding trees ([3]; spraying as in Example 5): bigger brighter green leaves
- frost damage ([3]; unseasonal frost, nearby unsprayed trees were subject to frost damage): not affected by an unseasonal frost
- toxicity to other soil microbes and biota [4]: not to be toxic
- new growth out of season [5]: gone into new growth
- flowering (Macadamia tree; 0.03% w/v foliar spray 28 Jun. 2019, after about two weeks, normally flowers in late August): came into flower
- flowering (Macadamia tree; 0.03% w/v, after three weeks): continued to produce flowers
- flower maturation and fruit (nut) set (Macadamia tree; 0.03% w/v, by 3rd August, some thirty-six days after spraying): the flowers have matured and the setting of fruit(nut) has commenced
- fruit growth (Macadamia tree; 0.03% w/v, by 28 Sep. 2019, some ninety-six days from spraying): growing apace
- shoot and root formation on treated grass sample (Rhodes grass): shoots and roots formed thereon
- dry matter, mass relative to the control ([6]; 0.03% w/v spray): 200% +/−4
- effect on mite infection ([6]; 0.03% w/v spray): overturned the mite infection
- treatment of grass die back from Phellinus and Pithium ([6]; 0.03% w/v spray, range of grass species, cause uncertain due to mealy bug): successful
- time until dead patches were resolved completely ([6]; spray 50 L/50 m^2 on grazing land, house front lawn, golf course couch greens, except the football field (chlorinated town water)): 10 to 14 days
- functionality to stimulate growth [7]: increased synergistically
- flowering ([8]; single foliar spray 28 Jun. 2019, within two weeks, normal flowering end of August): coming into flower
- flower maturation and fruit set ([8]; by 3 Aug. 2019, some thirty-six days from spraying): the initiated flowers had matured, and the setting of fruit had commenced
- flowering ([8]; by 18 July, some three weeks after spraying): continue showing flowering
- fruit growth ([8]; by 28 Sep. 2019, some ninety-six days from spraying): growing apace
- new flowering [8, 16]: abundance of new flowering
- signs of stress [8, 16]: not showing any signs of stress
- kill on contact (Phellinus spp.): kills
- kill on contact (Pithium spp.): kills
- kill on contact (Phytothphora cinnamomi): kills
- response of trees close to death [9]: slow but consistent response, with epicormic buds appearing on the tree trunks, under the bark and new leaves appearing on apparently dead branches
- growth response (mango (Mangifera indica); 0.03% w/v, foliar and stem spray, one to three sprays, response in order of the number of sprays): extraordinary
- fruit harvested, greater in mass for each additional spray (mango (Mangifera indica); 0.03% w/v, foliar and stem spray, per additional spray): 10%
- leaves in number and size, flower spikes and fruit set (mango (Mangifera indica); 0.03% w/v, one to three sprays, relative to order of number of sprays): followed suit
- fruit sweetness (mango (Mangifera indica); observed but not measured): sweeter with increased spraying
- success on killing off the fungus on affected plants (Fusarium oxysporum): 100%
- effect on fungal pathogen [10]: killed
- new shoots and leaf growth [11]: new shoots from branch axils and new leaf growth appeared
- indications of new growth ([12]; 0.0375% w/v aqueous solution, 20 L per tree sprayed to soil beneath two trees, within one week of spraying): marked new growth
- feeder roots examined ([12]; 0.0375% w/v, soil spray, about seven and a half months after spraying): healthy feeder roots and earthworms were found
- growth in size more than the surrounding trees ([12]; 0.0375% w/v, soil spray, within four months): 20-25%
- appearance of treated trees versus surrounding trees ([12]; 0.0375% w/v, soil spray, within seven weeks of spraying): significantly different to the surrounding trees
- effect on Phellinus in samples (Phellinus): appeared to have been killed
- effect on other small organisms, birds and animals [13]: benign
- growth of trees showing poor growth [14]: marked improvement with growth
- LD-50 (rat): 2 × the body mass of the rat
